Data reported in patent publication EP1043986B1, “MIXTURE AND PHARMACEUTICAL COMPOSITION COMPRISING Z-4-HYDROXYTAMOXIFEN AND CYCLODEXTRIN” (priority 1997, dated 1999).

Experiment: 10-day stability test in water and in 96 % ethanol, room temperature, normal day light, capillary electrophoresis
Type: physicochemical
Conditions: 10-days storage in 96 % ethanol
Protocol: A 10-day stability test in water and in 96 % ethanol at room temperature and exposure to normal day light, using 4-hydroxytamoxifen and the 4-hydrorytamoxifen/ γ-cyclodextrin complex prepared according to example 1 was performed. The change of E/Z isomer ratio was analyzed with capillary electrophoresis.

Efficiency value (ratio of uncomplexed and complexed 4-hydroxytamoxifen re/z values): 4,65
Ratio re/z (room temperature, normal day light): 0,223
Substance: 1-(p-β-dimethylaminoethoxyphenyl)-1-(p-hydroxyphenyl)-2-phenylbut-1-en [4-Hydroxytamoxifen]
